For the assay, the system named is endometriosis model rats. As to the kind of experiment: Therapeutic effect in endometriosis model rats (uterine tissue autotransplanted to peritoneum; lesion observed by light and electron microscopy). In kind it is in vivo, Sprague-Dawley rats (female). As to conditions: oral; for invasion of mast cells compared with Comparative Example 1 (non-treated model rats): 0.04 mg/kg bodyweight per day for 6 days from 24 hours after model preparation, lesion sampled at day 7; for therapy of endometriosis (overall conclusion) / apoptosis of fibroblast cells / proliferation of the interstitial cells: 0.04 mg/kg bodyweight per day for 6 days, day 7; for apoptosis of fibroblast cells / proliferation of the interstitial cells: light and electron microscope. On the procedure: Endometriosis model rats were prepared by the method described in Michael W. Vernon et al., FERTILITY AND STERILITY, Vol. 44, No. 5, November 1985. That is, endometriosis model rats were prepared as follows: Sprague-Dawley rats (female) of 8 weeks old were acclimatized for 2 weeks under 12 hours light-dark condition. From each rat, right uterine horn was excised under general anesthesia with sevoflurane and ketamine hydrochloride, and a tissue piece sizing 5 mm×5 mm was prepared therefrom. The tissue piece was subjected to autotransplantation such that the endometrium surface is attached to peritoneum.
Seven days after the preparation of the model rats, at which the model lesion reached its peak, the peritoneum tissue including the graft up to the abdominal muscle was excised to obtain a lesion sample. From the thus obtained samples, light microscope specimens (hematoxylin-eosin staining, toluidine blue staining) and electron microscope specimens (uranium-lead double staining) were prepared, and observations with an light microscope (the magnifications were 4× for hematoxylineosin-stained specimens, and 20× for toluidine blue-stained specimens, respectively), and with an electron microscope were carried out as in Reference Example 1.
Endometriosis model rats were prepared by the same method as in Comparative Example 1. From 24 hours after the preparation of the endometriosis model rats, an antiallergic agent (trademark “Alesion Tablet” produced by Boehringer Ingelheim) containing epinastine hydrochloride as the active component was orally administered to the rats for 6 days at a dose of 0.04 mg/kg bodyweight per day in terms of epinastine hydrochloride. Seven days after the preparation of the model rats, at which the model lesion reached its peak, the peritoneum tissues including the graft up to the abdominal muscle were excised to obtain lesion samples.
The same procedures as in Example 1 were repeated except that an antiallergic agent containing ketotifen fumarate as the active component (trademark “Zaditen” produced by Ciba-Geigy Japan Limited) was administered in place of the antiallergic agent containing epinastine hydrochloride as an active component.
The same procedures as in Example 1 were repeated except that an antiallergic agent containing pranlukast hydrate as the active component (trademark “ONON CAPSULE” produced by ONO PHARMACEUTICAL CO.,LTD.) was administered in place of the antiallergic agent containing epinastine hydrochloride as an active component, and that the administration dose per day was 9 mg/kg in terms of pranlukast hydrate.

Where a name gives a salt, the structure may show the parent alone.

Turning to `NC1=NCC2c3ccccc3Cc3ccccc3N12` (centres unmarked) [epinastine, epinastine hydrochloride], the “invasion of mast cells compared with Comparative Example 1 (non-treated model rats)” value was “apparently reduced”, the “therapy of endometriosis (overall conclusion)” value is “effective”, the “apoptosis of fibroblast cells” value is listed as “observed” and the “proliferation of the interstitial cells” value is “prominent inhibition”.
The matching figures for `CN1CCC(=C2c3ccccc3CC(=O)c3sccc32)CC1` [ketofetin, ketotifen fumarate]: “apparently reduced”, “effective”, “observed” and “prominent inhibition”.
